Assay results taken from ChEMBL document CHEMBL1201862, “PubChem BioAssay data set” (2004).
The source made the active and inactive calls.

Tests used:
[1] = molecular target: T1, Alkaline phosphatase, tissue-nonspecific isozyme (Homo sapiens, UniProt P05186); assay: activation of tissue-nonspecific alkaline phosphatase – biochemical, TNAP isozyme, mouse IAP uHTS hits, selectivity assay for mouse IAP activator project, dose response (AID 488880); assay type: functional
T1 sequence (P05186 whole entry): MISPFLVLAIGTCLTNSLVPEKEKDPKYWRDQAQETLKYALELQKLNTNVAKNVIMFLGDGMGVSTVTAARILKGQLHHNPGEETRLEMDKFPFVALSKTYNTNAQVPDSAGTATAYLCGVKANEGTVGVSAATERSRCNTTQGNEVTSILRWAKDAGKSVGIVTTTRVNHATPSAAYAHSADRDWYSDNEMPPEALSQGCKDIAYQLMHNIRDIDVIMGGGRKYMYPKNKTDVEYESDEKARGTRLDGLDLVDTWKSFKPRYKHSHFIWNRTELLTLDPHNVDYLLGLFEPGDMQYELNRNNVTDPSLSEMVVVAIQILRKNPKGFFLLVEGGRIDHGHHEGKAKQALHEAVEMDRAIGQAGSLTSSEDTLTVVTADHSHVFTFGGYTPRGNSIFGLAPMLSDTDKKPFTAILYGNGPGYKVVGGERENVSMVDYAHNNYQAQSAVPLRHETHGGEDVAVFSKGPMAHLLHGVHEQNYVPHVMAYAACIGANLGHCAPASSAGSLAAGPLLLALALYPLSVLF

[2] = molecular target: Intestinal-type alkaline phosphatase (Mus musculus, UniProt P24822); assay: mouse intestinal alkaline phosphatase activators, dose response, biochemical, luminescence, uHTS hits (AID 488783); assay type: functional
[3] = molecular target: T2, Rac GTPase-activating protein 1 (Homo sapiens, UniProt Q9H0H5); assay: blockers of MgcRacGAP-driven Rac1 GTP hydrolysis – biochemical, ADP Hunter fluorescence, primary and confirmatory, confirmation (AID 624330); assay type: functional
T2 sequence (Q9H0H5 whole entry): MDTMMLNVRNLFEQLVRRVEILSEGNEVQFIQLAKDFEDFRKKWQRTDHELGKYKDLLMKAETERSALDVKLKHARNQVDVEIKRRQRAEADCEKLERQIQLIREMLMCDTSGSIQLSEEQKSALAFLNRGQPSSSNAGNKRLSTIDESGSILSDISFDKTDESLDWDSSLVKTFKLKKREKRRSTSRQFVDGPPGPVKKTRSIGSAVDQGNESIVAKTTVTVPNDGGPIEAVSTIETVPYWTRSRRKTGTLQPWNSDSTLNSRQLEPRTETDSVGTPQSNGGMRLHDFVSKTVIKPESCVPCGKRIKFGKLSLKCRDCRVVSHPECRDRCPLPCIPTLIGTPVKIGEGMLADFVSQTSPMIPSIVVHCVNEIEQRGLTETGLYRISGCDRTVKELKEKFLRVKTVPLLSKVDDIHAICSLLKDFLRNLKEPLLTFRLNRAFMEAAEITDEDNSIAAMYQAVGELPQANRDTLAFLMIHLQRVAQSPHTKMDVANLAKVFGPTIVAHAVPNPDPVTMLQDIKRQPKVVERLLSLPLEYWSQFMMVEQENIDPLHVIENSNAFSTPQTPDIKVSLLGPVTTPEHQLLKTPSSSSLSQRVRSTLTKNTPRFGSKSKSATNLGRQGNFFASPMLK

[4] = molecular target: T1, Alkaline phosphatase, tissue-nonspecific isozyme; assay: potency against alkaline phosphatase TNAP – biochemical, luminescent, dose response, SAR follow-up (AID 1056)
[5] = molecular target: Alkaline phosphatase, placental type (Homo sapiens, UniProt P05187); assay: human placental alkaline phosphatase inhibition – biochemical, luminescence, confirmation (AID 1512); assay type: functional
[6] = molecular target: Intestinal-type alkaline phosphatase (Homo sapiens, UniProt P09923); assay: activation of human intestinal alkaline phosphatase – biochemical, dose response (AID 488873); assay type: functional
Troponin, cardiac muscle [7] = molecular target: T3, Troponin, cardiac muscle (Homo sapiens, UniProt P19429+P45379+P63316); assay: Fluorescence-based biochemical high throughput dose response assay for activators of the calcium sensitivity of cardiac Regulated Thin Filaments (RTF). [Related pubchem assays (depositor defined):AID493008, AID493018, AID504382, AID504383]; assay type: protein-complex assay
[8] = molecular target: T4, Endoribonuclease toxin MazF (Escherichia coli K-12, UniProt P0AE70); assay: substrate-only fluorescence increase artefacts – biochemical, single-stranded RNase substrate, counter-screen for MazEF activator project, dose response (AID 588502); assay type: functional
T4 sequence (P0AE70 whole entry): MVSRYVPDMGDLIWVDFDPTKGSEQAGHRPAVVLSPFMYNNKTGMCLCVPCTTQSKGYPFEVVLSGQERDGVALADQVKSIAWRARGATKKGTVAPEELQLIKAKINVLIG

[9] = molecular target: Induced myeloid leukemia cell differentiation protein Mcl-1 (Homo sapiens, UniProt Q07820); assay type: functional
Caspase-7 = Caspase-7 (Homo sapiens, UniProt P55210); assay: caspase-7 enzyme inhibition, selectivity check – biochemical, DEVD-R110 fluorescence, cherry-pick, selectivity assay for caspase-6 inhibitor project, dose response (AID 743295); assay type: functional
[10] = molecular target: 1-phosphatidylinositol 4,5-bisphosphate phosphodiesterase gamma-1 (Homo sapiens, UniProt P19174); assay: Counterscreen for inhibitors of phospholipase C isozymes (PLC-B3): Fluorescence-based biochemical high throughput dose response assay to identify inhibitors of phospholipase C isozymes (PLC-gamma1).
Troponin, cardiac muscle [11] = molecular target: T3, Troponin, cardiac muscle; assay: compounds desensitizing RTF to calcium – biochemical, fluorescence, cardiac regulated thin filaments, triplicate IC50, dose response (AID 504742); assay type: protein-complex assay
Genome polyprotein = Genome polyprotein (dengue virus type 2, UniProt P29990); assay: flavivirus cap methylation enzyme inhibition – biochemical, confirmation dose response, primary screen (AID 588689); assay type: functional
[12] = molecular target: T4, Endoribonuclease toxin MazF; assay: activation of MazEF endoribonuclease cleavage – biochemical, fluorescence, single-stranded RNA substrate, uHTS hits, dose response (AID 588481); assay type: functional
[13] = molecular target: 1-phosphatidylinositol 4,5-bisphosphate phosphodiesterase beta-3 (Homo sapiens, UniProt Q01970); assay: Fluorescence-based biochemical high throughput dose response assay to identify inhibitors of phospholipase C isozymes (PLC-B3).
ORF 73 = molecular target: T5, ORF 73 (Human herpesvirus 8, UniProt O40947); assay: KSHV LANA DNA-binding disruption – biochemical, fluorescence polarization, cherry-picked samples, dose response (AID 504725); set-up: species or system Human gammaherpesvirus 8;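 further: fluorescence polarization of a labeled DNA duplex reporting LANA DNA binding; potency is for inhibitors that block LANA binding to the DNA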
T5 sequence (O40947 whole entry): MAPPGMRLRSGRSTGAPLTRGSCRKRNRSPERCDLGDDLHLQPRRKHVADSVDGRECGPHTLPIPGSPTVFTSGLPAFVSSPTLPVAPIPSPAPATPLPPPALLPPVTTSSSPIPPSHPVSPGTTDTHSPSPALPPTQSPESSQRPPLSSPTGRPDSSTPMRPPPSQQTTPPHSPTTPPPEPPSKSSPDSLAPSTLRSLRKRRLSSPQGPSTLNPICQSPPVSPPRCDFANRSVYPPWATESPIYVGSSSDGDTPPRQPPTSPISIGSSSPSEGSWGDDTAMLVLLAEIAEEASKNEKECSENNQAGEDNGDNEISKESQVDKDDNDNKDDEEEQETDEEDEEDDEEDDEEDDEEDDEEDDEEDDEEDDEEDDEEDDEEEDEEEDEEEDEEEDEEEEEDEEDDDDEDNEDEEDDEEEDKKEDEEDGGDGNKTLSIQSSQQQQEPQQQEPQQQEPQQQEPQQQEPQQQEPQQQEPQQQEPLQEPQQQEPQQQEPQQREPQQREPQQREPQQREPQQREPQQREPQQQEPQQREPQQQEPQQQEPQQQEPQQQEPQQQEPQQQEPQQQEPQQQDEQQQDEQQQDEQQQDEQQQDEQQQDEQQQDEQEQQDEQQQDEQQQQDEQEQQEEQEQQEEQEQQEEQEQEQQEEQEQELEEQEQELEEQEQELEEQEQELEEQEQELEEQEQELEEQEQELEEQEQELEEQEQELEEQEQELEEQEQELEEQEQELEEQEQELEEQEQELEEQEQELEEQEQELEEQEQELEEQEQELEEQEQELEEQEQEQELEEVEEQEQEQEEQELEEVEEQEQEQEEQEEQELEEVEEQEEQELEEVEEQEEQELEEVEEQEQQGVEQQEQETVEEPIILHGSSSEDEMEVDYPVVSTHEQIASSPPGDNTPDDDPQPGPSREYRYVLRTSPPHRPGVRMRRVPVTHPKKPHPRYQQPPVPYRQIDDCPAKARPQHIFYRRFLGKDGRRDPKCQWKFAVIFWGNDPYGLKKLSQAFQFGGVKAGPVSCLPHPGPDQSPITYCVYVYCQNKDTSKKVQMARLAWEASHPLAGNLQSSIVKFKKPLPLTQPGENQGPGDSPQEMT

Caspase-6 = molecular target: T6, Caspase-6 (Homo sapiens, UniProt P55212); assay: inhibition of CASP6 peptide cleavage – biochemical, VEID-R110 fluorescence, cherry-pick, dose response (AID 720632)
T6 sequence (P55212 whole entry): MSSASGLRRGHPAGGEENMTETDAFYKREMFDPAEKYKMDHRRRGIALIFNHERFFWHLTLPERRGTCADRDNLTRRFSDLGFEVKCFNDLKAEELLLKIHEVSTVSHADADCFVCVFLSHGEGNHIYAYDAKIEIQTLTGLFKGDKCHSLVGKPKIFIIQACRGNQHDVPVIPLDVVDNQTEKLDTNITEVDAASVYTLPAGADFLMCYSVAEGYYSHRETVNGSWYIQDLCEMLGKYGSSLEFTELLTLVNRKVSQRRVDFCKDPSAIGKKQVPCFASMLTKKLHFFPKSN

[14] = molecular target: T7, Long-chain-fatty-acid--AMP ligase FadD28 (Mycobacterium tuberculosis, UniProt P9WQ59); assay: Fluorescence polarization aasay to screen for inhibitors that compete for the binding of FadD28 to a bisubstrate Measured in Biochemical System Using Plate Reader - 2147-01_Inhibitor_Dose_CherryPick_Activity.; assay type: functional, Mycobacterium tuberculosis H37Rv
T7 sequence (P9WQ59 whole entry): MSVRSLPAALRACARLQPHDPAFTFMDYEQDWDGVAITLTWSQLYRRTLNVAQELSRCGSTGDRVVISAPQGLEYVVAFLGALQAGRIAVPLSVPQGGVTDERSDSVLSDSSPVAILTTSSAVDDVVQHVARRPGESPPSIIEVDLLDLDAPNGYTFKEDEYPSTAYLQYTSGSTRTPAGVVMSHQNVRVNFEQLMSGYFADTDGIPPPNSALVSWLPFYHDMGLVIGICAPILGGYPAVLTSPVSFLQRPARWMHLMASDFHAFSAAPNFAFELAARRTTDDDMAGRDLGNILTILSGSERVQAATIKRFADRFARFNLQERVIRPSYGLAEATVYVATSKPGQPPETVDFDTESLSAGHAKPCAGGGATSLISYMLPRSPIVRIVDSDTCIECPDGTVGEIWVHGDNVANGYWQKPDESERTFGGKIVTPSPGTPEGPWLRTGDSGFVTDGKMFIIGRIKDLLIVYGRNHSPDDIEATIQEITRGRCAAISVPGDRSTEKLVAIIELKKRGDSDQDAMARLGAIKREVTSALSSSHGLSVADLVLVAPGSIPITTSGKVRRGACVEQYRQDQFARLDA

Sequence of Intestinal-type alkaline phosphatase (Homo sapiens, UniProt P09923) (P09923 whole entry): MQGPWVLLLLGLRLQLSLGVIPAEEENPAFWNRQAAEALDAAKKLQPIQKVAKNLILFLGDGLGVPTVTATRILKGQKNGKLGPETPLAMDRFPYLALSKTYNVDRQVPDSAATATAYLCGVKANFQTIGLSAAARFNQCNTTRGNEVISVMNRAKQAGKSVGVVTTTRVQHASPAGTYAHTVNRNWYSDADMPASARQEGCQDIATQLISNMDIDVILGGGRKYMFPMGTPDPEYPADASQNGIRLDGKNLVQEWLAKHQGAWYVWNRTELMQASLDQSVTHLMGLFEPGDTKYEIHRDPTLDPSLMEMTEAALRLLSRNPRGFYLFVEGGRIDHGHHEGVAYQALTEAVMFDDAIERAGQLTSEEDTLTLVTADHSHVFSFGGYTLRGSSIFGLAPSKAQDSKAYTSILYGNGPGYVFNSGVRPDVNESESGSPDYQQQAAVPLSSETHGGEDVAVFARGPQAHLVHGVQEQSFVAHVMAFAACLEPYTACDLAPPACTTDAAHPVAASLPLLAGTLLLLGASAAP
Sequence of Genome polyprotein (P29990 2492-3391 limits assumed): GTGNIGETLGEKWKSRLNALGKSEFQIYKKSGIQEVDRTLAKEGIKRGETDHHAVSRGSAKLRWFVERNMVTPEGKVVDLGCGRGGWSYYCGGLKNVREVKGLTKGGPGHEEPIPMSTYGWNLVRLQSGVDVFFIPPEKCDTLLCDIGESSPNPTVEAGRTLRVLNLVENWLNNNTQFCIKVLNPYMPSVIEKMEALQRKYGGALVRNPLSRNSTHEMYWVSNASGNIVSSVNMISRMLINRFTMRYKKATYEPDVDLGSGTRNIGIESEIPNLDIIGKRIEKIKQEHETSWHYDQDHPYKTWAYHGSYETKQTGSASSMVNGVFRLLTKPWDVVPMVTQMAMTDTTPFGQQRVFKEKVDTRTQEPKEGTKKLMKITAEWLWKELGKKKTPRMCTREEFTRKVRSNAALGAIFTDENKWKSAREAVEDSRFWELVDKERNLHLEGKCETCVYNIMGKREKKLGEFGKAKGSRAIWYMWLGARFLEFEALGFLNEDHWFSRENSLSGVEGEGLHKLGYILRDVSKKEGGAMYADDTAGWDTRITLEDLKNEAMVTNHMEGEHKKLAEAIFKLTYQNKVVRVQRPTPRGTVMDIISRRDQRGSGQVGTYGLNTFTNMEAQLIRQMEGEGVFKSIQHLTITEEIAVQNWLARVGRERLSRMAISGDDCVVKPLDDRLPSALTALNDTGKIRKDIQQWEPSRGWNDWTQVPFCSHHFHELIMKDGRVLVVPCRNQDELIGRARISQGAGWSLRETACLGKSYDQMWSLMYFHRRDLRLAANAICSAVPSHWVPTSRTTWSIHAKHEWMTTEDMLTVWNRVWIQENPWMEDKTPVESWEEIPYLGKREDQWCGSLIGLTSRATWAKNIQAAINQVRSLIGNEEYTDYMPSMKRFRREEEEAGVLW
Sequence of Intestinal-type alkaline phosphatase (Mus musculus, UniProt P24822) (P24822 whole entry): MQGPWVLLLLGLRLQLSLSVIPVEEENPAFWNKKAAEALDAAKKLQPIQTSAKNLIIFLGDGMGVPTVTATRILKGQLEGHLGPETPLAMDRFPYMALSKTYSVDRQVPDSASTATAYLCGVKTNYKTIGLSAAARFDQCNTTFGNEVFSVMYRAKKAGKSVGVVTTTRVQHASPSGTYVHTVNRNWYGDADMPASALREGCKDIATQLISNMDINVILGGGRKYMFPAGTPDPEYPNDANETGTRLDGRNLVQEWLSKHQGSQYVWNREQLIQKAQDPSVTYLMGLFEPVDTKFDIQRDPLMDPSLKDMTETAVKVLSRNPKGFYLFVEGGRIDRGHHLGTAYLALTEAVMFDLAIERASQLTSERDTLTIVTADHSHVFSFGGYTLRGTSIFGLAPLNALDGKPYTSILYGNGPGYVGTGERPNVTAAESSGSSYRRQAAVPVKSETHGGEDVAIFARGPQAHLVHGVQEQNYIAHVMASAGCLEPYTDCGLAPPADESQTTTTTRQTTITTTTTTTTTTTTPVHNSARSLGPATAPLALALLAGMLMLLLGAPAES
Sequence of Caspase-7 (P55210 24-198 limits assumed): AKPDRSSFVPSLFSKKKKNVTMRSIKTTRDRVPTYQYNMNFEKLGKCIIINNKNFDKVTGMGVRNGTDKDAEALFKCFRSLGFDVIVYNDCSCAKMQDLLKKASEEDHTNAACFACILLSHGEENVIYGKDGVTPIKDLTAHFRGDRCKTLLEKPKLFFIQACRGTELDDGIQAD
Sequence of Caspase-7 (P55210 207-303 limits assumed): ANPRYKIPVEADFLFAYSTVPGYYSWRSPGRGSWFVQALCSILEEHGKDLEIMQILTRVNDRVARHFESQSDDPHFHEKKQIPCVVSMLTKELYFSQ
Sequence of 1-phosphatidylinositol 4,5-bisphosphate phosphodiesterase gamma-1 (P19174 whole entry): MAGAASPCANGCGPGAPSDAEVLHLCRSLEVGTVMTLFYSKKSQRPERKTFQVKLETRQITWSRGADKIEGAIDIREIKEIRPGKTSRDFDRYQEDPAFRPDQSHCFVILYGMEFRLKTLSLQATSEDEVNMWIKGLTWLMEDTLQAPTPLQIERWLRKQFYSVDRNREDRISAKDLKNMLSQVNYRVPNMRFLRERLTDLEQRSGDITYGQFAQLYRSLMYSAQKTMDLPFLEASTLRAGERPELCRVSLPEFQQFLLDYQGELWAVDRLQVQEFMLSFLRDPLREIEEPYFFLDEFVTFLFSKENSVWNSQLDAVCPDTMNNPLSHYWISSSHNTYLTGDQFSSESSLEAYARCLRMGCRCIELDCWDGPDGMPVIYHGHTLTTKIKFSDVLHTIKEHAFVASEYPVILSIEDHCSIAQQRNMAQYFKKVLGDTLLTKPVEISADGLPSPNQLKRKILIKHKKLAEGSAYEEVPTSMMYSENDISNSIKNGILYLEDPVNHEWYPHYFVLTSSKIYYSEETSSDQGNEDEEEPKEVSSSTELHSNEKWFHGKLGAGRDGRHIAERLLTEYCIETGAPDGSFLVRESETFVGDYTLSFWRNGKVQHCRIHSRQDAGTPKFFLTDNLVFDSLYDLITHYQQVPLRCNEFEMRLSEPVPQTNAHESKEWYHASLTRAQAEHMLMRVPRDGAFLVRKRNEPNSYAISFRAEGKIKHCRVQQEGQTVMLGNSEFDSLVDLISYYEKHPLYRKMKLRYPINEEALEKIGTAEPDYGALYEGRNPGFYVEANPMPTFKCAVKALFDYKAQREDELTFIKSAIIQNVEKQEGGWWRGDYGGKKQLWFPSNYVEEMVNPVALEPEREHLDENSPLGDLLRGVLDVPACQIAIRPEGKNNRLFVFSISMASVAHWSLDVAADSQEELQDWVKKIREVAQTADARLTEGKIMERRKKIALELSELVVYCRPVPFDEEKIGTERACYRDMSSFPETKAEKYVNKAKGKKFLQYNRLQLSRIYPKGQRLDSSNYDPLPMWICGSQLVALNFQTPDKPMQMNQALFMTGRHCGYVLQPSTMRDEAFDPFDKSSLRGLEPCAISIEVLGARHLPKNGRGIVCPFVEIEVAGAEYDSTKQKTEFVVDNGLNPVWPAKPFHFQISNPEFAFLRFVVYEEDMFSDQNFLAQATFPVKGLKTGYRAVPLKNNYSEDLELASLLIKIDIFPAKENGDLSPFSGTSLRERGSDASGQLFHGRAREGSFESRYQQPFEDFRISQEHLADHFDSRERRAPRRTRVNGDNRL
Sequence of 1-phosphatidylinositol 4,5-bisphosphate phosphodiesterase beta-3 (Q01970 whole entry): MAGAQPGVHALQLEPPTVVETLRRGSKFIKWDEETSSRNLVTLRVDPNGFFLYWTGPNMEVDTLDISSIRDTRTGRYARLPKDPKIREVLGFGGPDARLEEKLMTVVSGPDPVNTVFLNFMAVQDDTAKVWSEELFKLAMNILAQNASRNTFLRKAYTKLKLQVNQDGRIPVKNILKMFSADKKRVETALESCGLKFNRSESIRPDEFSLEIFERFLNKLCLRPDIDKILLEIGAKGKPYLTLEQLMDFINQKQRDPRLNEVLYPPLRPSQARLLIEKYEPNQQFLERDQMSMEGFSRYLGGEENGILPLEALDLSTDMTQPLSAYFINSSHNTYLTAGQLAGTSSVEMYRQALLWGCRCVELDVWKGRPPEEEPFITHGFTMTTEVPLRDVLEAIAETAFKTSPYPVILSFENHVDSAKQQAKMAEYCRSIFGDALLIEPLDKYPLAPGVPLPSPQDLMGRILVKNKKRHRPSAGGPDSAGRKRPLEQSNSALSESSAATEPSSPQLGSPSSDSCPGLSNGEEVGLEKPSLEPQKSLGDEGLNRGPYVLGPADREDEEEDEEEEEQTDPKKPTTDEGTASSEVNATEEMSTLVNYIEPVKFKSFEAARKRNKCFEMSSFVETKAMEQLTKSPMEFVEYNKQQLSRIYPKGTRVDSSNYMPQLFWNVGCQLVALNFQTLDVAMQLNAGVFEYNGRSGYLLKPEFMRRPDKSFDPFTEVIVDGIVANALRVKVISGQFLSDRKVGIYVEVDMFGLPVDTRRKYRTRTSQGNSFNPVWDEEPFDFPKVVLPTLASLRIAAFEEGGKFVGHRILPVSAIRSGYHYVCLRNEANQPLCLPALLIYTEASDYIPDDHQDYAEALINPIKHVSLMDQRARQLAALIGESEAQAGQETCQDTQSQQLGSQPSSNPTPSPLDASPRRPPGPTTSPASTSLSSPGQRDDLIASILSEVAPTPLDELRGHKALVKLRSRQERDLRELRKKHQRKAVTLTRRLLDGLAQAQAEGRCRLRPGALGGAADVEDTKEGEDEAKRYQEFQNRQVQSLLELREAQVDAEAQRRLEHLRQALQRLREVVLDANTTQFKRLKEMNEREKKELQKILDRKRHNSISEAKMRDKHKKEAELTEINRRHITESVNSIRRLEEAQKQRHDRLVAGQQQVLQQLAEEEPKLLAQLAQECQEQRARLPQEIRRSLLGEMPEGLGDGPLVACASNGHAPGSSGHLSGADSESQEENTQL

C=CCn1c(SCC(=O)c2ccc(O)c(O)c2)nnc1-c1cccc(OC)c1
inactive: EC50 [2] 100 µM | EC50 [6] > 100 µM
active: EC50 [1] 68 µM | IC50 [3] 77.7 µM | IC50 [4] 17.4 µM | IC50 [5] 5.55 µM

COc1ccc(C(=O)Nn2cnc3scc(-c4cccs4)c3c2=O)c(O)c1
inactive: EC50 (Troponin, cardiac muscle [7]) > 71.5 µM

O=c1oc2c(cc1O)oc(=O)c1cc(O)c(O)c(O)c12
active: IC50 [9] > 54 µM | AC50 (Caspase-7) 2.35 µM | IC50 (Troponin, cardiac muscle [11]) 3.19 µM | IC50 (Genome polyprotein) > 100 µM | AC50 (ORF 73) 18.9 µM | AC50 (Caspase-6) 0.484 µM | AC50 [14] 98.7 µM
inactive: EC50 [8] > 99 µM | IC50 [10] > 123 µM | EC50 [12] 80.5 µM | IC50 [13] > 123 µM
